In test [1] the target is T1, hNET (Homo sapiens, UniProt P23975). Kind of test: fluorescence-based norepinephrine reuptake inhibition assay (Tsuruda et al. 2010; data indicated by an asterisk). Also on record: expressed in transfected cells; host or cells: HEK-293. To be noted: norepinephrine reuptake inhibition, fluorescence-based assay (values with asterisk); for IC50: read-out: NET pIC50 (converted). In kind it is cell-based.

Test [2] concerns the target T1, hNET. Kind of test: hNET membrane radioligand binding assay (3H-nisoxetine), Assay 1.
Test [3] has as its target T2, hSERT (Homo sapiens, UniProt P31645). Kind of test: fluorescence-based serotonin reuptake inhibition assay (Tsuruda et al. 2010; data indicated by an asterisk). Type of test: cell-based. The arrangement: expressed in transfected cells; host or cells: HEK-293. To be noted: fluorescence-based assay (values with asterisk); for IC50: read-out: SERT pIC50 (converted).
Test [4] has as its target T2, hSERT. Briefly: hSERT membrane radioligand binding assay (3H-citalopram), Assay 1. To be noted: SERT pKi, hSERT HEK-293 membranes, 1.0 nM 3H-citalopram; values given as lower bounds.
Protocol: Membrane radioligand binding assays were used to measure inhibition of labeled ligand (^3H-citalopram or ^3H-nisoxetine or ^3H-WIN35428) binding to membranes prepared from cells expressing the respective human recombinant transporter (hSERT or hNET or hDAT) in order to determine the pKi values of test compounds at the transporters.
Recombinant human embryonic kidney (HEK-293) derived cell lines stably transfected with hSERT or hNET, respectively, were grown in DMEM medium supplemented with 10% dialyzed FBS (for hSERT) or FBS (for hNET), 100 μg/mL penicillin, 100 μg/mL streptomycin, 2 mM L-glutamine and 250 μg/mL of the aminoglycoside antibiotic G418, in a 5% CO2 humidified incubator at 37° C. When cultures reached 80% confluence, the cells were washed thoroughly in PBS (without Ca^2+ and Mg^2+) and lifted with 5 mM EDTA in PBS. Cells were pelleted by centrifugation, resuspended in lysis buffer (10 mM Tris-HCl, pH7.5 containing 1 mM EDTA), homogenized, pelleted by centrifugation, then resuspended in 50 mM Tris-HCl, pH 7.5 and 10% sucrose at 4° C. Protein concentration of the membrane suspension was determined using a Bio-Rad Bradford Protein Assay kit. Membranes were snap frozen and stored at −80° C.
Binding assays were performed in a 96-well assay plate in a total volume of 200 μl assay buffer (50 mM Tris-HCl, 120 mM NaCl, 5 mM KCl, pH 7.4) with 0.5, 1, and 3 μg membrane protein, for SERT, NET and DAT, respectively.
Stock solutions (10 mM in DMSO) of test compound were prepared and serial dilutions made using Dilution Buffer (50 mM Tris-HCl, 120 mM NaCl, 5 mM KCl, pH 7.4, 0.1% BSA, 400 μM ascorbic acid).
Following a 60 minute incubation at 22° C. (or a period sufficient to reach equilibrium), the membranes were harvested by rapid filtration over a 96-well UniFilter GF/B plate, pretreated with 0.3% polyethyleneimine, and washed 6 times with 300 μl wash buffer (50 mM Tris-HCl, 0.9% NaCl, pH 7.5 at 4° C.). Plates were dried overnight at room temperature, approximately 45 μl of MicroScint™-20 (Perkin Elmer) added and bound radioactivity quantitated via liquid scintillation spectroscopy. Inhibition curves and saturation isotherms were analyzed using GraphPad Prism Software package (GraphPad Software, Inc., San Diego, Calif.). IC50 values were generated from concentration response curves using the Sigmoidal Dose Response (variable slope) algorithm in Prism GraphPad.

pKi: −log10 of the molar value. Marks after values point to notes of the source that are not given here. Where only a bound is given, the exact number is not on record here.

Usually pKi stands for −log10 of the Ki, conventionally taken in molar units. Read a high pKi as a small Ki.

T1 sequence (P23975 whole entry): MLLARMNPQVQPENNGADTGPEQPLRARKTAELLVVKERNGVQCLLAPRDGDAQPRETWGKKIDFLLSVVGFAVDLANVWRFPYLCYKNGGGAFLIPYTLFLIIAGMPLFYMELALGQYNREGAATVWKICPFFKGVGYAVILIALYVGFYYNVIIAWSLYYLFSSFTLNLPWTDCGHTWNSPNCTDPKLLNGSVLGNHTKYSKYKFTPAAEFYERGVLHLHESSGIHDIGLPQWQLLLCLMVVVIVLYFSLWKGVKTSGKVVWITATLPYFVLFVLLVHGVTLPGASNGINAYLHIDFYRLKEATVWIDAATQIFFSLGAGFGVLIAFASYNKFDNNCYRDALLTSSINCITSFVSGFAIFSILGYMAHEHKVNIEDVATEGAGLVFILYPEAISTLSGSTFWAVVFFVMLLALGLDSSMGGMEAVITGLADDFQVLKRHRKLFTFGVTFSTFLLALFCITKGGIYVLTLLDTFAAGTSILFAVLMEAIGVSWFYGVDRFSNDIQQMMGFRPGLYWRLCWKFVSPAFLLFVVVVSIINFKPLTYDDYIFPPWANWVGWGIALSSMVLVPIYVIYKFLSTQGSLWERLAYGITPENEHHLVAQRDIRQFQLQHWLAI
T2 sequence (P31645 whole entry): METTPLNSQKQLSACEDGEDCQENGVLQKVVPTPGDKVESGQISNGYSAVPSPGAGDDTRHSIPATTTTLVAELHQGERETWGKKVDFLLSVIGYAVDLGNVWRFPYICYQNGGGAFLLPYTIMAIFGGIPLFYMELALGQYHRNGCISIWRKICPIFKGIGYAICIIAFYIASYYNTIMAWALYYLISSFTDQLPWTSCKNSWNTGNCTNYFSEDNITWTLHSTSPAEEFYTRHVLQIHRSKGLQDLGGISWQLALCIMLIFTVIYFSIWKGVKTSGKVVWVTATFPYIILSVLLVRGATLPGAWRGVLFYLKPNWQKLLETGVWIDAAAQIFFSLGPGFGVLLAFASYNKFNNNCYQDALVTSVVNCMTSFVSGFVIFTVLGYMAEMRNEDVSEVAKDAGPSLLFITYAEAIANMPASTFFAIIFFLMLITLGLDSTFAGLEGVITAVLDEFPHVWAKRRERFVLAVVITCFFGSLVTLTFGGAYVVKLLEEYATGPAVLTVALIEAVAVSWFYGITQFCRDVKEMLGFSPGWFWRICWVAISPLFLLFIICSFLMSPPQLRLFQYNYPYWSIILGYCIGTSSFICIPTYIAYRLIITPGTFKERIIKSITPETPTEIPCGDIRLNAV

Consider `CC(C)C[C@H](Oc1cccc(Cl)c1Cl)[C@H]1CCNC1` [Example 9, (S)-3-[(S)-1-(2,3-Dichlorophenoxy)-3-methylbutyl]pyrrolidine], for which the IC50 in test [1] and in test [3] was no more than 10 nM throughout. For the same compound, the pKi in test [2] and in test [4] was no less than 8.00 each time.
With `Cc1c(Cl)cccc1O[C@@H](CC(C)C)[C@@H]1CCNC1` [Example 10-32, (R)-3-[(S)-1-(3-Chloro-2-methylphenoxy)-3-methylbutyl]pyrrolidine], the IC50 in test [1] and in test [3] was no more than 10 nM each time. Moreover, the pKi in test [2] and in test [4] was no less than 8.00 throughout.
For the compound `Clc1cccc(O[C@H](C2CC2)[C@H]2CCNC2)c1` [Example 16-85, (S)-3-[(R)-(3-Chlorophenoxy)cyclopropylmethyl]pyrrolidine], the figures for the IC50 in test [1] and in test [3] were no more than 10 nM and no more than 100 nM, respectively. Further, the pKi in test [2] and in test [4] was no less than 8.00 in each case.
`Fc1ccc(Cl)c(Cl)c1O[C@H](C1CC1)[C@H]1CCNC1` [Example 16-60, (S)-3-[(R)cyclopropyl-(2,3-dichloro-6-fluorophenoxy)methyl]pyrrolidine]: the IC50 in test [1] and in test [3] was no more than 10 nM throughout. The pKi in test [2] and in test [4] was no less than 8.00 throughout.
As for `COc1cc(Cl)c(F)cc1O[C@@H](C1CC1)[C@H]1CCNC1` [Example 16-74, (S)-3-[(S)-(4-Chloro-5-fluoro-2-methoxyphenoxy)cyclopropylmethyl]pyrrolidine], the IC50 in test [1] and in test [3] was no more than 10 nM in each case. The negative-log Ki (pKi) in test [2] and in test [4] was no less than 8.00 in each case.
Regarding `Fc1ccc(Cl)c(F)c1O[C@@H](C1CC1)[C@H]1CCNC1` [Example 16-66, (S)-3-[(S)-(3-Chloro-2,6-difluorophenoxy)cyclopropylmethyl]pyrrolidine], the IC50 was no more than 10 nM in test [1] and no more than 100 nM in test [3]. Further, the negative logarithm of the Ki (pKi) in test [2] and in test [4] was no less than 8.00 each time.
With `CC(C)C[C@H](Oc1cccc(F)c1Cl)[C@@H]1CCNC1` [Example 10-28, (R)-3-[(S)-1-(2-Chloro-3-fluorophenoxy)-3-methylbutyl]pyrrolidine], the IC50 in test [1] and in test [3] was no more than 10 nM in each case. Also, the negative logarithm of the Ki (pKi) in test [2] and in test [4] was no less than 8.00 throughout.
`COc1c(O[C@H](C2CC2)[C@H]2CCNC2)ccc(Cl)c1Cl` [Example 16-56, (S)-3-[(R)cyclopropyl-(3,4-dichloro-2-methoxyphenoxy)methyl]pyrrolidine]: the IC50 is no more than 316 nM in test [1] and no more than 10 nM in test [3]. In addition, the negative-log Ki (pKi) is no less than 6.50 in test [2] and no less than 8.00 in test [4].
For `Fc1ccc(O[C@@H](C2CC2)[C@H]2CCNC2)c(F)c1Cl` [Example 16-53, (S)-3-[(S)-(3-Chloro-2,4-difluorophenoxy)cyclopropylmethyl]pyrrolidine], in that order: no more than 10 nM, no more than 10 nM, no less than 8.00 and no less than 8.00.
For `CCC[C@@H](Oc1cccc(Cl)c1C(F)(F)F)[C@@H]1CCNC1` [Example 4-71, (R)-3-[(R)-1-(3-Chloro-2-trifluoromethylphenoxy)butyl]pyrrolidine], the IC50 in test [1] and in test [3] was no more than 100 nM throughout. Further, the pKi in test [2] and in test [4] was no less than 8.00 throughout.
Take `Cc1ccc(OC(C2CCCC2)C2CCNC2)c(Cl)c1` (stereo not shown) [Example 18-6, 3-[(2-Chloro-4-methylphenoxy)cyclopentylmethyl]pyrrolidine]: in test [1], the IC50 was no more than 100 nM. The “SERT pIC50” value in test [3] was “≧8.0*”.
Turning to `CCC[C@@H](Oc1ccc(Cl)c(F)c1)[C@H]1CCNC1` [Example 4-17, (S)-3-[(R)-1-(4-Chloro-3-fluorophenoxy)butyl]pyrrolidine], the results for the IC50 in test [1] and in test [3] were no more than 100 nM and no more than 10 nM, respectively.
In the same order, the values of `Clc1ccc(OC(C2CCCC2)C2CCNC2)cc1` (stereo not shown) [Example 18-11, 3-[(4-Chlorophenoxy)cyclopentylmethyl]pyrrolidine] are no more than 100 nM and no more than 10 nM.
As for `CC(C)[C@@H](Oc1ccc(Cl)c(Cl)c1)[C@@H]1CCNC1` [Example 6-64, (R)-3-[(R)-1-(3,4-Dichlorophenoxy)-2-methylpropyl]pyrrolidine], the figures for the IC50 in test [1] and in test [3] were no more than 100 nM and no more than 10 nM, respectively.
As for `CC(C)[C@@H](Oc1ccc(Cl)c(F)c1)[C@H]1CCNC1` [Example 6-57, (S)-3-[(R)-1-(4-Chloro-3-fluorophenoxy)-2-methylpropyl]pyrrolidine], the IC50 in test [1] was no more than 100 nM; in test [3] it was no more than 10 nM.
For `CC[C@@H](Oc1cccc(Cl)c1Cl)[C@H]1CCNC1` [Example 2-31, (S)-3-[(R)-1-(2,3-Dichlorophenoxy)propyl]pyrrolidine], in that order: no more than 10 nM and no more than 10 nM.
Turning to `Cc1cc(O[C@H](C(C)C)[C@H]2CCNC2)ccc1Cl` [Example 6-71, (S)-3-[(R)-1-(4-Chloro-3-methylphenoxy)-2-methylpropyl]pyrrolidine], the IC50 was no more than 100 nM in test [1] and no more than 10 nM in test [3].
In the same order, the values of `CCC[C@@H](Oc1cccc(F)c1F)[C@H]1CCNC1` [Example 4-44, (S)-3-[(R)-1-(2,3-Difluorophenoxy)butyl]pyrrolidine] are no more than 10 nM and no more than 100 nM.
For `Clc1cccc(Cl)c1OC(C1CCCC1)C1CCNC1` (stereo not shown) [Example 18-8, 3-[Cyclopentyl-(2,6-dichlorophenoxy)methyl]pyrrolidine], in that order: no more than 10 nM and no more than 100 nM.
On to `Fc1ccc(OC(C2CCCC2)C2CCNC2)cc1` (stereo not shown) [Example 18-12, 3-[Cyclopentyl-(4-fluorophenoxy)methyl]pyrrolidine], for which the IC50 in test [1] and in test [3] was no more than 100 nM throughout.
With `CCC[C@@H](Oc1cccc(Cl)c1F)[C@@H]1CCNC1` [Example 4-47, (R)-3-[(R)-1-(3-Chloro-2-fluorophenoxy)butyl]pyrrolidine], the IC50 was no more than 10 nM in test [1] and no more than 100 nM in test [3].
Take `CC(C)C[C@@H](Oc1cccc2ccccc12)[C@H]1CCNC1` [Example 14-9, (S)-3-[(R)-3-Methyl-1-(naphthalen-1-yloxy)butyl]pyrrolidine]: the IC50 in test [1] and in test [3] was no more than 10 nM each time.
As to `CC(C)C[C@H](Oc1ccc(Cl)c(F)c1)[C@H]1CCNC1` [Example 10-72, (S)-3-[(S)-1-(4-Chloro-3-fluorophenoxy)-3-methylbutyl]pyrrolidine], the IC50 in test [1] and in test [3] was no more than 10 nM in each case.
For the compound `Fc1c(Cl)ccc(O[C@H](C2CC2)[C@H]2CCNC2)c1F` [Example 16-49, (S)-3-[(R)-(4-Chloro-2,3-difluorophenoxy)cyclopropylmethyl]pyrrolidine], the IC50 in test [1] and in test [3] was no more than 10 nM in each case.
On to `Cc1c(Cl)cccc1O[C@H](C(C)C)[C@@H]1CCNC1` [Example 6-41, (R)-3-[(R)-1-(3-Chloro-2-methylphenoxy)-2-methylpropyl]pyrrolidine], for which the values for the IC50 in test [1] and in test [3] were no more than 100 nM and no more than 10 nM, respectively.
`Cc1cc(Cl)cc(Cl)c1O[C@H](C1CC1)[C@H]1CCNC1` [Example 16-78, (S)-3-[(R)cyclopropyl-(2,4-dichloro-6-methylphenoxy)methyl]pyrrolidine]: the IC50 in test [1] and in test [3] was no more than 100 nM each time.
Consider `CC(C)[C@@H](Oc1ccc(Cl)c(F)c1)[C@@H]1CCNC1` [Example 6-58, (R)-3-[(R)-1-(4-Chloro-3-fluorophenoxy)-2-methylpropyl]pyrrolidine], for which the results for the IC50 in test [1] and in test [3] were no more than 100 nM and no more than 10 nM, respectively.
Regarding `CCC[C@@H](Oc1ccc(Cl)c(Cl)c1)[C@@H]1CCNC1` [Example 4-14, (R)-3-[(R)-1-(3,4-Dichlorophenoxy)butyl]pyrrolidine], the figures for the IC50 in test [1] and in test [3] were no more than 100 nM and no more than 10 nM, respectively.
Regarding `Clc1cc(Cl)cc(OC(C2CCCC2)C2CCNC2)c1` (stereo not shown) [Example 18-10, 3-[Cyclopentyl-(3,5-dichlorophenoxy)methyl]pyrrolidine], in test [1], the “NET pIC50” value is reported as “≧8.0*”. In addition, in test [3], the IC50 was no more than 100 nM.
On to `CCC[C@H](Oc1cc(F)cc(Cl)c1)[C@H]1CCNC1` [Example 4-11, (S)-3-[(S)-1-(3-Chloro-5-fluorophenoxy)butyl]pyrrolidine], for which the IC50 in test [1] is no more than 10 nM; in test [3], no more than 100 nM.
In the same order, the values of `CC(C)[C@@H](Oc1cccc2ccccc12)[C@@H]1CCNC1` [Example 14-7, (R)-3-[(R)-2-Methyl-1-(naphthalen-1-yloxy)propyl]pyrrolidine] are no more than 100 nM and no more than 10 nM.
In the same order, the values of `CCC[C@@H](Oc1ccc(F)c(F)c1F)[C@H]1CCNC1` [Example 4-49, (S)-3-[(R)-1-(2,3,4-Trifluorophenoxy)butyl]pyrrolidine] are no more than 100 nM and no more than 10 nM.
For `CCC[C@@H](Oc1c(F)ccc(OC)c1Cl)[C@H]1CCNC1` [Example 4-42, (S)-3-[(R)-1-(2-Chloro-6-fluoro-3-methoxyphenoxy)butyl]pyrrolidine], in that order: no more than 10 nM and no more than 10 nM.
Turning to `CC[C@@H](Oc1cccc(Cl)c1C(F)(F)F)[C@H]1CCNC1` [Example 2-74, (S)-3-[(R)-1-(3-Chloro-2-trifluoromethylphenoxy)propyl]pyrrolidine], the IC50 in test [1] is no more than 100 nM; in test [3] it was no more than 10 nM.
